{"source": "patent US20250270223A1", "about": "“CRYSTAL OF SUBSTITUTED PIPERAZINE DERIVATIVE AND PREPARATION METHOD THEREFOR” (Kangbaida (Sichuan) Biotechnology Co., Ltd, priority 2022, published 2025)", "key": {"[1]": {"test": "In vivo pharmacokinetic studies (plasma concentration of prototype drug by LC/MS/MS after gavage)", "conditions": "ICR male mice fasted overnight, 1 mg/mL suspension in 5% DMSO+30% HP-β-CD, plasma 0-24 h", "procedure": "A proper amount of compound was weighed and 1 mg/mL suspension was prepared using the weighed compound and 5% DMSO+30% HP-β-CD. After ICR male mice fasted overnight, they were administered by gavage and their blood was collected from the jugular venous plexus at different time points of 0, 5 min, 0.25 h, 0.5 h, 1 h, 2 h, 4 h, 8 h, and 24 h. After anticoagulation with EDTA-K2, plasma was separated by centrifugation, and the concentrations of prototype drug in plasma was determined by LC/MS/MS."}, "[2]": {"test": "Stability study (lighting, high-temperature, high-humidity, acceleration, intermediate conditions, long-term tests)", "format": "physicochemical", "conditions": "light 4,500 lx; 60° C.; 25° C. RH 92.5% and 72.5%; 40° C./75% RH; 30° C./65% RH; 25° C./60% RH", "description": "A proper amount of compound was weighed and placed in a suitable white transparent open container (such as a weighing bottle or petri dish), the container was placed in a lighting stability test chamber for drugs at an illumination of 4,500 lx±500 lx. The samples were taken for testing 5, 10, and 30 days after the placement.\nA proper amount of compound was weighed and placed in a suitable open container (such as a weighing bottle or culture dish), the container was placed in an electric heated air-drying oven at 60° C. The samples were taken for testing 5, 10, and 30 days after the placement.\nA proper amount of compound was weighed and placed in suitable open container (such as a weighing bottle or petri dish), the container was placed in a KNO3 saturated solution desiccator at a temperature of 25° C.±2° C. and a relative humidity of 92.5% and 72.5% respectively. The samples were taken for testing 5, 10, and 30 days after the placement.\nAfter packaging an appropriate amount of the compound with inner packaging (pharmaceutical low-density polyethylene film, bag) and outer packaging (polyester/aluminum/polyethylene pharmaceutical composite film, bag), the compound was tested at a temperature of 40° C.±2° C. and a relative humidity of 75%±5%. […]"}}}
{"smiles": "C[C@@H](COCc1cc2n(n1)CCN(c1ncc(C(F)(F)F)cn1)C2)Nc1cn[nH]c(=O)c1C(F)(F)F", "note": "[crystalline form A, (S)-4-(Trifluoromethyl)-5-((1-((5-(5-(trifluoromethyl)pyrimidin-2-yl)-4,5,6,7-tetrahydropyrazolo[1,5-a]pyrazin-2-yl)methoxy)propan-2-yl)amino)pyridazin-3(2H)-one]", "values": [{"measurement": "pharmacokinetic properties", "setting": "[1]", "result": "good pharmacokinetic properties"}, {"measurement": "physical and chemical stability", "setting": "[2]", "result": "good physical and chemical stability"}]}
